PubChem BioAssay AID179 (DTP/NCI, 2004)
Active and inactive are the calls of the source.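 The calls were made as follows: active = compounds giving half or more protection of infected cells from virus-caused growth loss, again on retest; inactive = the rest.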

Tested on: CEM cells HIV-1 protection, formazan growth assay
Experiment: NCI AIDS Antiviral Assay
Conditions: for IC50: measured here: growth of uninfected CEM cells
Procedure, shortened: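 CEM (human) cells, HIV-1 infected vs uninfected, 5-point dosing, formazan growth read-out. Retest threshold 50% protection.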

Compound	EC50	IC50	outcome
Nc1ncnc2c1ncn2C1C=CC(COS(N)(=O)=O)C1 (stereo not given)	> 100 µM	52.5 µM	–
Cc1nc(=O)n2c(c1C(=O)Nc1ccc(Cl)cc1)NCC2	–	–	inactive
CC(C)c1ccc(C(c2ccc(OCC(=O)O)cc2)c2ccc(C(C)C)cc(=O)c2O)c(O)c(=O)c1	–	–	inactive
O=[N+]([O-])C1C2C=CC(C2)[C@H]1c1ccco1 (stereo not given in full)	–	–	inactive
NS(=O)(=O)c1c(O)c2ccccc2oc1=O	–	–	inactive
COc1ccc(-c2nnc(-c3ccncc3)o2)cc1	> 200 µM	> 200 µM	–
O=C(CC(C(=O)c1ccsc1)c1ccccc1)c1cccs1 (stereo not given)	> 200 µM	39.8 µM	–
O=S(=O)(c1ccccc1)C(c1ccc2ccccc2n1)S(=O)(=O)c1ccccc1	> 200 µM	41.7 µM	–
C=C(C)C(CCC(=O)O)(CCC(=O)O)C(C)=O	> 1020 µM	> 1020 µM	–
O=C(O)c1oc2cccc3c2c1CCC3	–	–	inactive
CN(C)c1ccc(N=C2C=CC(=C(C#N)C#N)c3ccccc32)cc1	–	–	inactive
Cc1ccc(NC(=O)NC(=O)CCl)cc1	> 31.6 µM	7.76 µM	–
CNC(=S)NNC1=NCCCN1	> 200 µM	> 200 µM	–
COC(=O)CSc1cc(Cl)c(C)cc1S(=O)(=O)Nc1n[nH]c(N)n1	> 200 µM	> 200 µM	–
Cc1ccc(C)c(N2C(=O)C(=O)C(c3nc4ccccc4s3)/C(=N/NC(=O)NN)C2=O)c1 (stereo not given)	–	–	inactive
S=c1[nH]nc(CCCCCCCCc2n[nH]c(=S)o2)o1	–	–	inactive
COc1cc2ccnc3c2c(c1OC)-c1ccccc1C3=O	–	–	inactive
Oc1cccc2nc3cc(CN4CCOCC4)c(CN4CCOCC4)cc3nc12	> 18.2 µM	> 18.2 µM	–
CC(C)=C1C2CCC1C1CSCC21 (stereo not given)	> 115 µM	> 115 µM	–
C/C=C1/C(=C/c2[nH]c(/C=c3\[nH]/c(=C/C4=NC(=O)C(CC)=C4C)c(C)c3CCC(=O)O)c(CCC(=O)O)c2C)NC(=O)C1C (stereo not given)	–	–	inactive
CN1CCN(C2Sc3ccccc3C(=O)N3CCCC23)CC1 (stereo not given)	> 126 µM	> 126 µM	–
O=C(Cc1nc2ccccc2o1)C(=O)Nc1ccccc1C(F)(F)F	–	–	inactive
O=c1[nH]c2ccccc2c(O)c1-c1ccccc1	> 200 µM	> 200 µM	–

Compound	EC50	IC50	outcome
Clc1ccc(C2=Nc3ccccc3SC(c3cccs3)C2)cc1 (stereo not given)	> 7.59 µM	> 7.59 µM	–
CCN(CC)C(=O)COc1cc2c(O)c3c(O)c(C)c4c(c13)C(=O)C(C)(OC=CC(OC)C(C)C(OC(C)=O)C(C)C(O)C(C)C(O)C(C)C=CC=C(C)C(=O)N2)O4 (stereo not given)	> 155 µM	> 100 µM	–
NC(=O)c1cc([N+](=O)[O-])cc([N+](=O)[O-])c1	> 200 µM	40.7 µM	–
CC1(/C=C/CCSc2ccccc2)CC(=O)C2CC1C2(C)C (stereo not given)	> 200 µM	7.94 µM	–
CN(C)CCNC(=O)Cc1ccccc1Nc1c(Cl)cccc1Cl	> 200 µM	30.2 µM	–
CC(C)[Si]1(C(C)C)OCC2OC(n3c(C(=O)c4ccccc4)cc(=O)[nH]c3=O)CC2O[Si](C(C)C)(C(C)C)O1 (stereo not given)	> 200 µM	9.12 µM	–
C/C(=N/NC(=S)N1CCCCCC1)c1cccc(/C(C)=N\NC(=S)N2CCCCCC2)n1	> 200 µM	3.63 µM	–
CC(=O)OC(/C=C1/C=CC(=O)O1)COC(=O)c1ccccc1 (stereo not given)	> 309 µM	5.89 µM	–
O=C(/C=C/c1ccc2c(c1)OCO2)NCCc1ccco1	> 200 µM	126 µM	–
CCOC(=O)C1=C(C#N)S(=O)(=O)c2c(oc(C)c2C)N1	> 200 µM	> 200 µM	–
O=C(CCCN1CCN(c2ccccn2)CC1)c1ccc(F)cc1	> 132 µM	72.4 µM	–
CCN(CC)c1ccc(N=C2C=CC(=O)c3ncccc32)c(C)c1	> 11.7 µM	> 11.7 µM	–
C[N+](C)(C)CC1CCCC/C1=N\OC(=O)c1ccccc1 (stereo not given)	> 603 µM	575 µM	–
Nc1nnc2nc(CC(=O)c3cccc([N+](=O)[O-])c3)/c(=C/C(=O)c3cccc([N+](=O)[O-])c3)n12	> 16.2 µM	> 16.2 µM	–
CCCCCNC(=O)C1C(=O)N(CCCCC)C(=O)/C1=N\N (stereo not given)	> 12 µM	> 12 µM	–
CC(Oc1ccc2c(-c3ccccc3)cc(=O)oc2c1)C(=O)O (stereo not given)	–	–	inactive
Cc1oc2c(C)c3oc(=O)cc(C)c3cc2c1CO	> 200 µM	30.2 µM	–
N=C1C(=N)c2ccccc2-c2ccccc21.[Cl-].[Rh+3].c1cnc2c(c1)ccc1cccnc12.c1cnc2c(c1)ccc1cccnc12	–	–	inactive
CCc1cccc(C(C)C)c1NC(=O)C(=O)C(C(=O)C(=O)OC)c1nc2ccccc2[nH]c1=O (stereo not given)	> 537 µM	269 µM	–
NC(=O)/C(=N\NC(=O)C[n+]1ccccc1)C1NC(=O)NC1=O (stereo not given)	> 148 µM	> 148 µM	–
N#C/C(=C\c1cc(Br)c(O)c(Br)c1)c1cccnc1	> 100 µM	44.7 µM	–
C/C=C/C=Nc1c(C#N)c2n(c1C(=O)Nc1ccc(C)cc1)CCC2	> 50.1 µM	> 50.1 µM	–
CSC(=S)OC1C(CO[Si](C)(C)C(C)(C)C)OC2OC(C)(C)OC21 (stereo not given)	–	–	inactive

Compound	EC50	IC50	outcome
N#Cc1ccccc1NC(=O)C(O)C(O)C(O)C(O)C=O (stereo not given)	> 200 µM	> 200 µM	–
CN(C)CCN(C)CCC(=O)/C=C/c1ccccc1	–	–	inactive
CON(C)C(=O)C(C)N(Cc1ccccc1)Cc1ccccc1 (stereo not given)	> 83.2 µM	33.1 µM	–
COc1ccc(N2C(=O)C3c4[nH]c5cccc(C)c5c4C4CCC(C(C)(C)C)CC4C3C2=O)cc1 (stereo not given)	> 200 µM	89.1 µM	–
O=C(CCC(=O)C1Cc2ccccc2C1=O)Nc1cccc(C(F)(F)F)c1 (stereo not given)	> 661 µM	> 661 µM	–
Oc1cccc2cc(Br)cnc12	> 20 µM	5.01 µM	–
CCN(CC)C(=O)Cn1c(C)cc2ccccc21	> 200 µM	> 200 µM	–
COc1ccc(/C=C(\C)C=C(C#N)C#N)cc1	> 44.7 µM	34.7 µM	–
Cc1ccc(O)c(Cc2cc(C)cc(Cc3cc(C)ccc3O)c2O)c1	> 102 µM	20 µM	–
O=C(c1cccs1)N(C(=S)N1CCN(c2ccccn2)CC1)c1ccccc1	> 17.8 µM	> 17.8 µM	–
CN1CC=C(C#CC(C)(C)O)CC1	> 200 µM	> 200 µM	–
CC1=NN(C(=O)CC(=O)Nc2ccccc2C)C(=O)C1N=Nc1ccc(S(=O)(=O)c2ccc(N=NC3C(=O)N(C(=O)CC(=O)Nc4ccccc4C)N=C3C)cc2)cc1 (stereo not given)	> 50.1 µM	> 50.1 µM	–
CCN(CC)CCC1CCCCN1CC(=O)N1c2ccccc2NC(=O)c2ccccc21 (stereo not given)	> 200 µM	> 200 µM	–
Cc1cc(Cl)c(=O)n(-c2ccccc2)n1	> 162 µM	> 162 µM	–
NC(=O)C(=CNc1nc(-c2ccc(Cl)c(Cl)c2)cs1)C(N)=O	> 200 µM	102 µM	–
CC(C)S(=O)(=O)O	> 200 µM	> 200 µM	–
O=C(O)CCC(=O)NC(c1ccccc1)c1ccccc1	> 200 µM	> 200 µM	–
O=C(/C=C\c1cccc2ccccc12)c1cccs1	> 3.98 µM	> 3.98 µM	–
CCN(CC)C(=O)Cc1[nH][nH]c(=O)c1C(=O)N(CC)CC	> 851 µM	> 851 µM	–
CCOP(=O)(Cc1c(Cl)c(Cl)c(CP(=O)(OCC)OCC)c(Cl)c1Cl)OCC	> 200 µM	26.9 µM	–
COCn1cnc2c(=O)n(-c3ccc(OC)cc3)c(=S)n(-c3ccc(OC)cc3)c21	> 200 µM	> 200 µM	–
COc1ccc(NC(=O)c2c(NC(C)=O)c(C#N)c3n2CCC3)cc1	> 200 µM	> 200 µM	–
COC1/C=C\OC2(C)Oc3c(C)c(O)c4c(O)c(c(/C=N\N5CCCC5)c(O)c4c3C2=O)NC(=O)/C(C)=C\C=C/C(C)C(O)C(C)C(O)C(C)C(OC(C)=O)C1C (stereo not given)	–	–	inactive

Compound	EC50	IC50	outcome
Cc1c(C(=O)CC(=O)C(=O)Nc2c(C(C)C)cccc2C(C)C)[n+](=O)c2ccccc2n1[O-]	> 6.03 µM	> 6.03 µM	–
O=C1/C(=C/c2ccc(Cl)cc2)COc2ccc(Br)cc21	> 14.8 µM	> 14.8 µM	–
N#CC(C#N)=Cc1cccc(F)c1	> 209 µM	42.7 µM	–
C[C@]12CC[C@H]3[C@@H](CC=C4C[C@@H](O)CC[C@@]43C)[C@@H]1CC[C@@H]2c1cnc[nH]1	> 200 µM	117 µM	–
CC(=O)c1c2c(cc3c1CC1(Cc4cc5c(cc4C1=O)CCC5)C3)CCC2 (stereo not given)	> 200 µM	13.5 µM	–
C1=CC2SSSC2C1 (stereo not given)	> 251 µM	> 251 µM	–
Cc1ccc2c(c1)C1(SC(C)C(=O)N1c1ccc(I)cc1)C(=O)N2 (stereo not given)	> 200 µM	20 µM	–
Nc1cccnc1NCC1(CO)CCCC1	> 200 µM	> 200 µM	–
O=C(CCc1cc(-c2ccccc2)nc(=S)[nH]1)N(Cc1ccccc1)Cc1ccccc1	–	–	inactive
COc1cc2c(c(C)c1O)[C@H]1COc3ccccc3[C@H]1O2	> 87.1 µM	15.8 µM	–
Cc1cc2c(s1)C(N)CC2=O (stereo not given)	> 200 µM	> 200 µM	–
NC(=S)C(=S)N/C=C(/c1ccc(Cl)cc1)S(=O)(=O)Cc1ccc(Cl)cc1	–	–	inactive
CCOC(=O)C(=Cc1cccc(OC)c1)C(=O)OCC	> 129 µM	14.8 µM	–
O=C(Sc1c(-c2ccccc2)c(=O)n(-c2ccccc2)c(=S)n1-c1ccccc1)c1ccco1	> 200 µM	34.7 µM	–
CCOC(=O)/C(=C\c1ccnc2ccccc12)P(=O)(OCC)OCC	> 200 µM	3.31 µM	–
CCN(CC)CCC1CCCCN1CC(=O)N1c2cc(Cl)ccc2NC(=O)CC1C (stereo not given)	> 200 µM	> 200 µM	–
CC(=O)O/C=C1/C[C@H]2[C@@H]3CCC4CC(C(C)=O)CC[C@]4(C)[C@H]3CC[C@]2(C)C1=O (stereo not given in full)	> 200 µM	107 µM	–
O=C(O)c1cc(C(=C(c2cc(Cl)c(O)c(C(=O)O)c2)c2cc(Cl)c(O)c(C(=O)O)c2)c2cc(Cl)c(O)c(C(=O)O)c2)cc(Cl)c1O	87.1 µM	95.5 µM	–
COc1ccc(C(=O)/C=C/c2ccc(OCC#N)cc2)cc1	> 200 µM	15.8 µM	–
O=[N+]([O-])C(=C(Nc1ccccc1)Nc1ccccc1)/C(Cl)=C(\Cl)Br	> 200 µM	7.41 µM	–
